Patent US10988477B2 (Merck Patent GmbH, priority 2018, dated 2021)

Target: GCN2 kinase (Homo sapiens, UniProt Q9P2K8)
Experiment: GCN2 enzyme inhibition assay (Transcreener ADP2 fluorescence polarization)
Format: biochemical
Conditions: Enzyme activity for compounds of Formula IV; Ki(app), 280 μM ATP, 25° C.
Summary of the method: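 FP detection of ADP (antibody plus Alexa633 tracer) after a 1 h, 25 °C kinase reaction. Enzyme 4 nM, ATP 280 μM, (RS)7 peptide 200 μM, Tris pH 7.5 buffer with MgCl2 and DTT. Percent inhibition fitted by non-linear tight-binding algorithm for IC50 and Ki(app).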

GCN2 kinase, sequence (Q9P2K8 whole entry): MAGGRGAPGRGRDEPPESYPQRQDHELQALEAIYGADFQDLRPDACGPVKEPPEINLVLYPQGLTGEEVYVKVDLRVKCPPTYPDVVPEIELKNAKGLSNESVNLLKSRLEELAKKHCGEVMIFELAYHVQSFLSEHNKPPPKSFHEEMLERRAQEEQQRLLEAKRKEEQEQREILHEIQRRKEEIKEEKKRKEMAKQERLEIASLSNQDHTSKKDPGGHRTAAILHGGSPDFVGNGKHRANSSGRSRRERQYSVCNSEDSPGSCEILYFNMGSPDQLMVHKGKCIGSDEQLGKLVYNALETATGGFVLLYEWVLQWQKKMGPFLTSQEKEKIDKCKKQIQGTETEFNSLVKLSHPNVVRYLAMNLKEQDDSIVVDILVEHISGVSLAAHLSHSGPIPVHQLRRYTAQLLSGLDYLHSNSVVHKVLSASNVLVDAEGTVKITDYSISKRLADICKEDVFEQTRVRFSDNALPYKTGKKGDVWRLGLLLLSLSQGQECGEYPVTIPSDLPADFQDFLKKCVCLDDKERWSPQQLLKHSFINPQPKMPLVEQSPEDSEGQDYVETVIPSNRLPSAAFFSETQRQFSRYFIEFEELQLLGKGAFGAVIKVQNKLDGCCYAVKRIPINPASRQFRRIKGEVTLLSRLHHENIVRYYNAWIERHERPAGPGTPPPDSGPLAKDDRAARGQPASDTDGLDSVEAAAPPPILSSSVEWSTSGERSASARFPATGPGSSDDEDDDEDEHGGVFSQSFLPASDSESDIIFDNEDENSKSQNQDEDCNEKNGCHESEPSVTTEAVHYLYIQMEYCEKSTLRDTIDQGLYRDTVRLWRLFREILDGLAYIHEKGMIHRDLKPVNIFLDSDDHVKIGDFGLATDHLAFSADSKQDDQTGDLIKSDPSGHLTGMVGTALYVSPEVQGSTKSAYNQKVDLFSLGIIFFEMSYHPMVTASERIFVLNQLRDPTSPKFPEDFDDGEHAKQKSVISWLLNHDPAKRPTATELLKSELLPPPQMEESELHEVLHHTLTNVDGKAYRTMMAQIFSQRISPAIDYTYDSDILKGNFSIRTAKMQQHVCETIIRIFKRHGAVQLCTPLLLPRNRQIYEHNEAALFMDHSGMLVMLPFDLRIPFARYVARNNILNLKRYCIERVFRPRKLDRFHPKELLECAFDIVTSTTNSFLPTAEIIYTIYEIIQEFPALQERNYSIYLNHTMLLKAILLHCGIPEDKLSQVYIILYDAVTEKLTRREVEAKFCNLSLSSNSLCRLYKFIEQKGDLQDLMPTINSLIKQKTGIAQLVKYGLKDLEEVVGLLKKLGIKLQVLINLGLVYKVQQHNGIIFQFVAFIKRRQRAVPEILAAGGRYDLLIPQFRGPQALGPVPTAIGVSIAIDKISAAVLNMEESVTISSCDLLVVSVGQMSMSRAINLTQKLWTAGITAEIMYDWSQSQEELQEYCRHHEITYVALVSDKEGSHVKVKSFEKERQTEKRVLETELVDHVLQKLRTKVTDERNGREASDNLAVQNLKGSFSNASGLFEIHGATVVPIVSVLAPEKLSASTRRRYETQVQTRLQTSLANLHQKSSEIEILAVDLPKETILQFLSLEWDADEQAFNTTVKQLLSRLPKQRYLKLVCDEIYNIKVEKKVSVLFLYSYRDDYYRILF

| Ki | Compound |
| --- | --- |
| 100 to 1000 nM | NCC1CCN(c2ccnc(-c3cnc4cnc(C(F)(F)F)cn34)n2)CC1 [IV-487] |
| 100 to 1000 nM | COCC1CCCCN(c2ccnc(-c3cnc4cnc(C(F)(F)F)cn34)n2)C1 (stereo not drawn) [IV-509, 3-(4-(3-(Methoxymethyl)azepan-1-yl)pyrimidin-2-yl)-6-(trifluoromethyl)imidazo[1,2-a]pyrazine] |
| 100 to 1000 nM | COCC1CCN(c2ccnc(-c3cnc4cnc(C(F)(F)F)cn34)n2)CC1 [IV-512, 3-(4-(4-(Methoxymethyl)piperidin-1-yl)pyrimidin-2-yl)-6-(trifluoromethyl)imidazo[1,2-a]pyrazine] |
| 100 to 1000 nM | N#CCC1CCCN(c2ccnc(-c3cnc4cnc(C(F)(F)F)cn34)n2)C1 (stereo not drawn) [IV-514, 2-(1-(2-(6-(Trifluoromethyl)imidazo[1,2-a]pyrazin-3-yl)pyrimidin-4-yl)piperidin-3-yl)acetonitrile] |
| 100 to 1000 nM | CC1CCN(c2ccnc(-c3cnc4cnc(C(F)(F)F)cn34)n2)CC1 [IV-517, 3-(4-(4-Methylpiperidin-1-yl)pyrimidin-2-yl)-6-(trifluoromethyl)imidazo[1,2-a]pyrazine] |
| 100 to 1000 nM | CC(C)(O)C1CCN(c2ccnc(-c3cnc4cnc(C(F)(F)F)cn34)n2)C1 (stereo not drawn) [IV-520, 2-(1-(2-(6-(Trifluoromethyl)imidazo[1,2-a]pyrazin-3-yl)pyrimidin-4-yl)pyrrolidin-3-yl)propan-2-ol] |
| 100 to 1000 nM | CC(=O)NCC1CCCN(c2ccnc(-c3cnc4cnc(C(F)(F)F)cn34)n2)C1 (stereo not drawn) [IV-526, N-((1-(2-(6-(Trifluoromethyl)imidazo[1,2-a]pyrazin-3-yl)pyrimidin-4-yl)piperidin-3-yl)methyl)acetamide] |
| 100 to 1000 nM | NC(=O)NCC1CCCN(c2ccnc(-c3cnc4cnc(C(F)(F)F)cn34)n2)C1 (stereo not drawn) [IV-527, 1-((1-(2-(6-(Trifluoromethyl)imidazo[1,2-a]pyrazin-3-yl)pyrimidin-4-yl)piperidin-3-yl)methyl)urea] |
| 100 to 1000 nM | CC(=O)NC1CCN(c2ccnc(-c3cnc4cnc(C(F)(F)F)cn34)n2)C1 (stereo not drawn) [IV-528, N-(1-(2-(6-(Trifluoromethyl)imidazo[1,2-a]pyrazin-3-yl)pyrimidin-4-yl)pyrrolidin-3-yl)acetamide] |
| 100 to 1000 nM | NC(=O)CC1CCCN(c2ccnc(-c3cnc4cnc(C(F)(F)F)cn34)n2)C1 (stereo not drawn) [IV-529, 2-(1-(2-(6-(Trifluoromethyl)imidazo[1,2-a]pyrazin-3-yl)pyrimidin-4-yl)piperidin-3-yl)acetamide] |
| 100 to 1000 nM | CC(=O)NC1CCCN(c2ccnc(-c3cnc4cnc(C(F)(F)F)cn34)n2)C1 (stereo not drawn) [IV-530, N-(1-(2-(6-(Trifluoromethyl)imidazo[1,2-a]pyrazin-3-yl)pyrimidin-4-yl)piperidin-3-yl)acetamide] |
| 100 to 1000 nM | CC(=O)NCC1CCN(c2ccnc(-c3cnc4cnc(C(F)(F)F)cn34)n2)C1 (stereo not drawn) [IV-537, N-((1-(2-(6-(Trifluoromethyl)imidazo[1,2-a]pyrazin-3-yl)pyrimidin-4-yl)pyrrolidin-3-yl)methyl)acetamide] |

Second part, the compound before the results:

| Compound | Ki |
| --- | --- |
| FC(F)(F)c1cn2c(-c3ccnc(N4CCCC(c5c[nH]cn5)C4)n3)cnc2cn1 (stereo not drawn) [IV-484, 3-(2-(3-(1H-Imidazol-4-yl)piperidin-1-yl)pyrimidin-4-yl)-6-(trifluoromethyl)imidazo[1,2-a]pyrazine] | 10 to 100 nM |
| NCCC1CN(c2ccnc(-c3cnc4cnc(C(F)(F)F)cn34)n2)CCO1 (stereo not drawn) [IV-486] | 100 to 1000 nM |
| NCC1CN(c2ccnc(-c3cnc4cnc(C(F)(F)F)cn34)n2)CCO1 (stereo not drawn) [IV-489] | 100 to 1000 nM |
| O=C1CN(C2CCCN(c3ccnc(-c4cnc5cnc(C(F)(F)F)cn45)n3)C2)CCN1 (stereo not drawn) [IV-490, 4-(1-(2-(6-(Trifluoromethyl)imidazo[1,2-a]pyrazin-3-yl)pyrimidin-4-yl)piperidin-3-yl)piperazin-2-one] | 100 to 1000 nM |
| FC(F)(F)c1cn2c(-c3nccc(N4CCCC5(CCOC5)C4)n3)cnc2cn1 (stereo not drawn) [IV-496, 7-(2-(6-(Trifluoromethyl)imidazo[1,2-a]pyrazin-3-yl)pyrimidin-4-yl)-2-oxa-7-azaspiro[4.5]decane] | 100 to 1000 nM |
| FC(F)(F)c1cn2c(-c3nccc(N4CC5CCOC5C4)n3)cnc2cn1 (stereo not drawn) [IV-497, 5-(2-(6-(Trifluoromethyl)imidazo[1,2-a]pyrazin-3-yl)pyrimidin-4-yl)hexahydro-2H-furo[2,3-a]pyrrole] | 100 to 1000 nM |
| NC(C1CCCN(c2ccnc(-c3cnc4cnc(C(F)(F)F)cn34)n2)C1)C(F)(F)F (stereo not drawn) [IV-502, 2,2,2-Trifluoro-1-(1-(2-(6-(trifluoromethyl)imidazo[1,2-a]pyrazin-3-yl)pyrimidin-4-yl)piperidin-3-yl)ethan-1-amine] | 100 to 1000 nM |
| NC(C1CCCN(c2ccnc(-c3cnc4cnc(C(F)(F)F)cn34)n2)C1)C(F)(F)F (stereo not drawn) [IV-503, 2,2,2-Trifluoro-1-(1-(2-(6-(trifluoromethyl)imidazo[1,2-a]pyrazin-3-yl)pyrimidin-4-yl)piperidin-3-yl)ethan-1-amine] | 100 to 1000 nM |
| FC(F)(F)c1cn2c(-c3nccc(N4CCN5CCOCC5C4)n3)cnc2cn1 (stereo not drawn) [IV-504, 8-(2-(6-(Trifluoromethyl)imidazo[1,2-a]pyrazin-3-yl)pyrimidin-4-yl)octahydropyrazino[2,1-a][1,4]oxazine] | 100 to 1000 nM |
| FC(F)(F)c1cn2c(-c3nccc(N4CCCC5(CCOCC5)C4)n3)cnc2cn1 [IV-505, 2-(2-(6-(Trifluoromethyl)imidazo[1,2-a]pyrazin-3-yl)pyrimidin-4-yl)-9-oxa-2-azaspiro[5.5]undecane] | 100 to 1000 nM |
| CC(C)(C)C1OCN2CCN(c3ccnc(-c4cnc5cnc(C(F)(F)F)cn45)n3)CC12 (stereo not drawn) [IV-506, 1-(tert-Butyl)-7-(2-(6-(trifluoromethyl)imidazo[1,2-a]pyrazin-3-yl)pyrimidin-4-yl)hexahydro-3H-oxazolo[3,4-a]pyrazine] | 100 to 1000 nM |
| FC(F)(F)c1cn2c(-c3nccc(N4CCC(C5CCOCC5)C4)n3)cnc2cn1 (stereo not drawn) [IV-507, 3-(4-(3-(Tetrahydro-2H-pyran-4-yl)pyrrolidin-1-yl)pyrimidin-2-yl)-6-(trifluoromethyl)imidazo[1,2-a]pyrazine] | 100 to 1000 nM |
| FC(F)(F)c1cn2c(-c3nccc(N4CCC(C5COC5)C4)n3)cnc2cn1 (stereo not drawn) [IV-508, 3-(4-(3-(Oxetan-3-yl)pyrrolidin-1-yl)pyrimidin-2-yl)-6-(trifluoromethyl)imidazo[1,2-a]pyrazine] | 100 to 1000 nM |
| FC(F)(F)c1cn2c(-c3nccc(N4CCC(CN5CCOCC5)CC4)n3)cnc2cn1 [IV-510, 4-((1-(2-(6-(Trifluoromethyl)imidazo[1,2-a]pyrazin-3-yl)pyrimidin-4-yl)piperidin-4-yl)methyl)morpholine] | 100 to 1000 nM |
| FC(F)(F)c1cn2c(-c3nccc(N4CCC5(CC4)COC5)n3)cnc2cn1 [IV-511, 7-(2-(6-(Trifluoromethyl)imidazo[1,2-a]pyrazin-3-yl)pyrimidin-4-yl)-2-oxa-7-azaspiro[3.5]nonane] | 100 to 1000 nM |
| N#CC1CCN(c2ccnc(-c3cnc4cnc(C(F)(F)F)cn34)n2)CC1 [IV-513, 1-(2-(6-(Trifluoromethyl)imidazo[1,2-a]pyrazin-3-yl)pyrimidin-4-yl)piperidine-4-carbonitrile] | 100 to 1000 nM |
| O=C1NC[C@@H]2CCN(c3ccnc(-c4cnc5cnc(C(F)(F)F)cn45)n3)C[C@H]12 [IV-515, (3aR,7aR)-5-(2-(6-(Trifluoromethyl)imidazo[1,2-a]pyrazin-3-yl)pyrimidin-4-yl)octahydro-3H-pyrrolo[3,4-a]pyridin-3-one] | 100 to 1000 nM |
| N#CC1CCCN(c2ccnc(-c3cnc4cnc(C(F)(F)F)cn34)n2)C1 (stereo not drawn) [IV-516, 1-(2-(6-(Trifluoromethyl)imidazo[1,2-a]pyrazin-3-yl)pyrimidin-4-yl)piperidine-3-carbonitrile] | 100 to 1000 nM |
| CC1CCCCN1c1ccnc(-c2cnc3cnc(C(F)(F)F)cn23)n1 (stereo not drawn) [IV-518, 3-(4-(2-Methylpiperidin-1-yl)pyrimidin-2-yl)-6-(trifluoromethyl)imidazo[1,2-a]pyrazine] | 10 to 100 nM |
| CC1CCCN(c2ccnc(-c3cnc4cnc(C(F)(F)F)cn34)n2)C1C (stereo not drawn) [IV-519, 3-(4-(2,3-Dimethylpiperidin-1-yl)pyrimidin-2-yl)-6-(trifluoromethyl)imidazo[1,2-a]pyrazine] | 10 to 100 nM |
| FC(F)(F)c1cn2c(-c3nccc(N4CCC5(CCOCC5)C4)n3)cnc2cn1 [IV-522, 2-(2-(6-(Trifluoromethyl)imidazo[1,2-a]pyrazin-3-yl)pyrimidin-4-yl)-8-oxa-2-azaspiro[4.5]decane] | 100 to 1000 nM |
| FC(F)(F)c1cn2c(-c3nccc(N4CCCC5(COC5)C4)n3)cnc2cn1 [IV-523, 6-(2-(6-(Trifluoromethyl)imidazo[1,2-a]pyrazin-3-yl)pyrimidin-4-yl)-2-oxa-6-azaspiro[3.5]nonane] | 100 to 1000 nM |
| CC1(C)CN(c2ccnc(-c3cnc4cnc(C(F)(F)F)cn34)n2)CCO1 [IV-531, 2,2-Dimethyl-4-(2-(6-(trifluoromethyl)imidazo[1,2-a]pyrazin-3-yl)pyrimidin-4-yl)morpholine] | 100 to 1000 nM |
| CC1(C)COCCN1c1ccnc(-c2cnc3cnc(C(F)(F)F)cn23)n1 [IV-532, 3,3-Dimethyl-4-(2-(6-(trifluoromethyl)imidazo[1,2-a]pyrazin-3-yl)pyrimidin-4-yl)morpholine] | 100 to 1000 nM |
| O=C1NCCC12CCN(c1ccnc(-c3cnc4cnc(C(F)(F)F)cn34)n1)C2 (stereo not drawn) [IV-533, 7-(2-(6-(Trifluoromethyl)imidazo[1,2-a]pyrazin-3-yl)pyrimidin-4-yl)-2,7-diazaspiro[4.4]nonan-1-one] | 100 to 1000 nM |
| O=C1CC2(CCN(c3ccnc(-c4cnc5cnc(C(F)(F)F)cn45)n3)C2)CN1 (stereo not drawn) [IV-534, 7-(2-(6-(Trifluoromethyl)imidazo[1,2-a]pyrazin-3-yl)pyrimidin-4-yl)-2,7-diazaspiro[4.4]nonan-3-one] | 100 to 1000 nM |
| NS(=O)(=O)C1CCCN(c2ccnc(-c3cnc4cnc(C(F)(F)F)cn34)n2)C1 (stereo not drawn) [IV-536, 1-(2-(6-(Trifluoromethyl)imidazo[1,2-a]pyrazin-3-yl)pyrimidin-4-yl)piperidine-3-sulfonamide] | 100 to 1000 nM |
